Details: Hot wire method

FC(F)(F)/C=C/Cl [(E)-1-chloro-3,3,3-trifluoroprop-1-ene]
Details | thermal conductivity [W/m/K]
323.1 K, 34268 kPa, Liquid | 0.09193
323.1 K, 66598 kPa, Liquid | 0.1029
323.11 K, 123 kPa, Gas | 0.01239
323.13 K, 141 kPa, Gas | 0.01226
323.13 K, 436 kPa, Liquid | 0.07562
323.13 K, 34301 kPa, Liquid | 0.09204
323.15 K, 9819 kPa, Liquid | 0.08053
323.15 K, 56133 kPa, Liquid | 0.09946
323.17 K, 162 kPa, Gas | 0.01242
323.18 K, 25073 kPa, Liquid | 0.08808
323.2 K, 191 kPa, Gas | 0.01256
323.22 K, 5184 kPa, Liquid | 0.07808
323.24 K, 99 kPa, Gas | 0.01215
323.24 K, 43827 kPa, Liquid | 0.09508
323.25 K, 99 kPa, Gas | 0.01276
323.25 K, 164 kPa, Gas | 0.01258
323.26 K, 123 kPa, Gas | 0.01268
323.26 K, 43810 kPa, Liquid | 0.0946
323.3 K, 34263 kPa, Liquid | 0.09159
323.32 K, 34298 kPa, Liquid | 0.09169
323.33 K, 446 kPa, Liquid | 0.07514
323.39 K, 25067 kPa, Liquid | 0.08782
323.41 K, 123 kPa, Gas | 0.01233
323.45 K, 161 kPa, Gas | 0.01242
323.47 K, 142 kPa, Gas | 0.0127
323.52 K, 66583 kPa, Liquid | 0.1032
323.54 K, 259 kPa, Gas | 0.01261
323.54 K, 66602 kPa, Liquid | 0.103
323.57 K, 16961 kPa, Liquid | 0.08443
323.6 K, 56150 kPa, Liquid | 0.09972
323.64 K, 165 kPa, Gas | 0.01259
323.64 K, 189 kPa, Gas | 0.01262
323.65 K, 123 kPa, Gas | 0.01276
323.66 K, 9815 kPa, Liquid | 0.08057
323.69 K, 99 kPa, Gas | 0.01287
323.72 K, 123 kPa, Gas | 0.01229
323.73 K, 66589 kPa, Liquid | 0.103
323.75 K, 66615 kPa, Liquid | 0.1027
323.76 K, 5178 kPa, Liquid | 0.07818
323.77 K, 160 kPa, Gas | 0.01238
323.77 K, 16953 kPa, Liquid | 0.08413
323.81 K, 56140 kPa, Liquid | 0.09958
323.87 K, 438 kPa, Liquid | 0.07537
323.88 K, 9798 kPa, Liquid | 0.08054
323.92 K, 142 kPa, Gas | 0.01276
323.98 K, 5181 kPa, Liquid | 0.07788
323.99 K, 260 kPa, Gas | 0.01261
324.07 K, 165 kPa, Gas | 0.01273
324.09 K, 123 kPa, Gas | 0.0128
324.11 K, 428 kPa, Liquid | 0.07518
324.12 K, 188 kPa, Gas | 0.01262
324.17 K, 99 kPa, Gas | 0.01287
324.41 K, 142 kPa, Gas | 0.01275
324.45 K, 260 kPa, Gas | 0.01268
324.52 K, 165 kPa, Gas | 0.01271
324.55 K, 123 kPa, Gas | 0.01276
324.61 K, 187 kPa, Gas | 0.01271
324.68 K, 99 kPa, Gas | 0.0129
324.93 K, 141 kPa, Gas | 0.01279
324.96 K, 260 kPa, Gas | 0.01269
324.99 K, 163 kPa, Gas | 0.01274
325.04 K, 123 kPa, Gas | 0.01286
325.13 K, 186 kPa, Gas | 0.01278
325.22 K, 99 kPa, Gas | 0.01286
325.47 K, 141 kPa, Gas | 0.01283
325.5 K, 161 kPa, Gas | 0.01276
325.56 K, 123 kPa, Gas | 0.01283
325.79 K, 99 kPa, Gas | 0.01295
326.04 K, 160 kPa, Gas | 0.01284
326.1 K, 123 kPa, Gas | 0.01295
331.18 K, 333 kPa, Gas | 0.01373
331.42 K, 333 kPa, Gas | 0.01368
331.5 K, 333 kPa, Gas | 0.01298
331.53 K, 115 kPa, Gas | 0.01325
331.54 K, 333 kPa, Gas | 0.01297
331.58 K, 329 kPa, Gas | 0.01333
331.68 K, 333 kPa, Gas | 0.01367
331.75 K, 257 kPa, Gas | 0.01341
331.8 K, 182 kPa, Gas | 0.01323
331.82 K, 332 kPa, Gas | 0.01319
331.83 K, 113 kPa, Gas | 0.01306
331.85 K, 115 kPa, Gas | 0.01325
331.86 K, 333 kPa, Gas | 0.01297
331.89 K, 328 kPa, Gas | 0.01301
331.9 K, 328 kPa, Gas | 0.01382
331.94 K, 333 kPa, Gas | 0.01367
331.97 K, 263 kPa, Gas | 0.01309
332 K, 256 kPa, Gas | 0.01333
332.04 K, 97 kPa, Gas | 0.01346
332.06 K, 181 kPa, Gas | 0.01314
332.08 K, 113 kPa, Gas | 0.01302
332.08 K, 186 kPa, Gas | 0.01344
332.12 K, 331 kPa, Gas | 0.01303
332.14 K, 328 kPa, Gas | 0.01379
332.18 K, 114 kPa, Gas | 0.01353
332.2 K, 328 kPa, Gas | 0.01299
332.25 K, 255 kPa, Gas | 0.01328
332.28 K, 333 kPa, Gas | 0.013
332.3 K, 262 kPa, Gas | 0.01306
332.33 K, 180 kPa, Gas | 0.01309
332.36 K, 113 kPa, Gas | 0.01297
332.37 K, 97 kPa, Gas | 0.01361
332.4 K, 328 kPa, Gas | 0.01373
332.42 K, 185 kPa, Gas | 0.01339
332.52 K, 253 kPa, Gas | 0.01329
332.54 K, 113 kPa, Gas | 0.01346
332.56 K, 97 kPa, Gas | 0.01298
332.56 K, 328 kPa, Gas | 0.01325
332.63 K, 178 kPa, Gas | 0.01301
332.63 K, 333 kPa, Gas | 0.01323
332.64 K, 112 kPa, Gas | 0.01294
332.66 K, 260 kPa, Gas | 0.01314
332.67 K, 328 kPa, Gas | 0.01373
332.71 K, 98 kPa, Gas | 0.01354
332.81 K, 183 kPa, Gas | 0.0135
332.81 K, 252 kPa, Gas | 0.01326
332.84 K, 97 kPa, Gas | 0.01292
332.93 K, 177 kPa, Gas | 0.01297
332.95 K, 113 kPa, Gas | 0.01357
332.95 K, 328 kPa, Gas | 0.0132
332.96 K, 113 kPa, Gas | 0.01287
333.06 K, 258 kPa, Gas | 0.01325
333.08 K, 97 kPa, Gas | 0.01356
333.08 K, 333 kPa, Gas | 0.01308
333.14 K, 97 kPa, Gas | 0.01284
333.22 K, 183 kPa, Gas | 0.01328
333.25 K, 176 kPa, Gas | 0.01293
333.35 K, 328 kPa, Gas | 0.0133
333.38 K, 113 kPa, Gas | 0.01357
333.44 K, 97 kPa, Gas | 0.01284
333.49 K, 257 kPa, Gas | 0.01337
333.5 K, 97 kPa, Gas | 0.01356
333.54 K, 333 kPa, Gas | 0.01313
333.58 K, 176 kPa, Gas | 0.01292
333.66 K, 182 kPa, Gas | 0.01345
333.78 K, 328 kPa, Gas | 0.01326
333.82 K, 113 kPa, Gas | 0.0136
333.93 K, 255 kPa, Gas | 0.01332
333.94 K, 97 kPa, Gas | 0.01368
334.01 K, 333 kPa, Gas | 0.01329
334.14 K, 180 kPa, Gas | 0.01351
334.25 K, 328 kPa, Gas | 0.01327
334.31 K, 112 kPa, Gas | 0.01357
334.41 K, 97 kPa, Gas | 0.01363
334.42 K, 254 kPa, Gas | 0.0134

Source: the NIST ThermoML archive (doi:10.1021/acs.jced.7b00106)
